We go through two compounds from article PMC9520760 (ACS Omega, 2022).

One test relates to MCF-7 cells. Put plainly: MTT cell proliferation assay, MCF-7. The test is classed as cell-based, human. Conditions: for IC50: Homo sapiens, MCF7, 48 h, read-out: IC50 (Mean ± SEM) MCF-7; for antiproliferative activity against MCF-7: MTT assay. In general terms: Tetrazolium dyes change colour on reduction, which living cells bring about.
In the next test the test system is MDA-MB-231 cells. Briefly: MTT cell proliferation assay, MDA-MB-231. Format: cell-based, human. Conditions: for IC50: Homo sapiens, MDA-MB-231, 48 h, read-out: IC50 (Mean ± SEM) MDA-MB-231; for antiproliferative activity against MDA-MB-231: MTT assay.
Another test deals with HeLa cells. Put plainly: MTT cell proliferation assay, HeLa. The test is classed as cell-based, human. The note with it: for IC50: Homo sapiens, HeLa, 48 h, read-out: IC50 (Mean ± SEM) HeLa; for antiproliferative activity against HeLa: MTT assay.
A further test concerns PC-3 cells. Briefly: MTT cell proliferation assay, PC-3. The test is classed as cell-based. Conditions: Homo sapiens, PC-3, 48 h, read-out: IC50 (Mean ± SEM) PC-3.
In a further test the test system is Ishikawa cell line. Briefly: MTT cell proliferation assay, Ishikawa. The test is classed as cell-based, human. The note with it: for IC50: Homo sapiens, Ishikawa, 48 h, read-out: IC50 (Mean ± SEM) Ishikawa.
The subject of a further test is HEK-293 cells. Briefly: MTT toxicity in normal cell line HEK-293. The note with it: Homo sapiens, HEK293, 48 h, read-out: IC50 (Mean ± SEM) HEK-293. Format: cell-based.
Test [1] concerns various cancer cell lines. Briefly: MTT assay, panel of cancer cell lines. Conditions: Homo sapiens, read-out: IC50 against various cancer cell lines. Format: cell-based.

As a reminder, the IC50 is the concentration at which inhibition is half-maximal. With `Cc1nn(-c2ccccc2)c(O)c1C(c1ccc(Cl)cc1)c1c(C)nn(-c2ccccc2)c1O` [3c], the IC50 with MCF-7 cells is 16.3 ± 0.62 µM; with MDA-MB-231 cells it was 22.4 ± 1.34 µM; in the test with HeLa cells, 32.4 ± 1.62 µM; in the test on PC-3 cells, greater than 40 µM; in the test on Ishikawa cell line, 36.9 ± 1.38 µM; with HEK-293 cells it was greater than 40 µM. Further, in test [1], the IC50 was in the range of 5.45 to 18.3 µM. Moreover, the “antiproliferative activity against MCF-7” value with MCF-7 cells was “good inhibition”. Further, in the test on MDA-MB-231 cells, the “antiproliferative activity against MDA-MB-231” value was “mild inhibition”. For the same compound, the “antiproliferative activity against HeLa” value with HeLa cells is “weak antiproliferative activity”. Moreover, the “antiproliferative activity against Ishikawa” value with Ishikawa cell line (MTT assay) is “weak antiproliferative activity”.

On to `Cc1nn(-c2ccccc2)c(O)c1C(c1ccccc1)c1c(C)nn(-c2ccccc2)c1O` [3a], for which the IC50 in the test on MCF-7 cells is 35.1 ± 1.38 µM; with MDA-MB-231 cells it was 30.8 ± 1.49 µM; with HeLa cells it was 30.7 ± 1.38 µM; in the test with PC-3 cells, greater than 40 µM; with Ishikawa cell line, 30.2 ± 2.12 µM; in the test with HEK-293 cells, greater than 40 µM. Further, in the test on MCF-7 cells, the “antiproliferative activity against MCF-7” value was “weak inhibition”. Also, the “antiproliferative activity against MDA-MB-231” value in the test on MDA-MB-231 cells was “weak inhibition”. For the same compound, in the test on HeLa cells, the “antiproliferative activity against HeLa” value is “weak inhibition”.
